This is an account of results in patent US8367623B2, “Glycolipid and medicine for autoimmune disease containing the same as active ingredient” (Japan as Represented by President of National Center of …, priority 2001, dated 2013).

Experiment [1] deals with Murine spleen cells. The experiment can be described thus: spleen cell cytokine measurements (INF-γ and IL-4, ELISA). Particulars: FIG. 8 and FIG. 9. Format: cell-based. The protocol: Murine spleen cells were isolated, and levels of INF-γ and IL-4 formation due to synthesized glycolipids were measured using the ELISA method.
(§1) Murine spleen cells were isolated, and the proliferation reactions for synthesized glycolipids were measured using thymidine incorporation into the cells as the indicator. […] Murine spleen cells were isolated, and levels of INF-γ and IL-4 formation due to the synthesized glycolipids were measured using the ELISA method.
On the technique in general: An ELISA detects its analyte on a solid surface through an enzyme-linked reagent.

For experiment [2], the system named is Murine spleen cells. The experiment can be described thus: spleen cell proliferation reaction (thymidine incorporation). Format: cell-based. The settings on record: FIG. 7 and FIG. 9. The protocol: Murine spleen cells were isolated, and the proliferation reaction for the synthesized glycolipids were measured using thymidine incorporation into the cells as the indicator.
as §1

A further experiment has as its system serum INF-γ and IL-4. Briefly: cytokines in blood (serum INF-γ and IL-4, ELISA). Format: in vivo. Particulars: administered to mice, serum levels with elapsed time, FIG. 6. How it is done:
A large amount of cytokine is known to be released into the blood in a short duration of time when NKT cells are stimulated. Therefore, serum INF-γ and IL-4 levels with elapsed time were measured using the ELISA method when the synthesized glycolipids were administered to mice.

Another experiment concerns diabetes incidence. The experiment can be described thus: suppression test of diabetes incidence in NOD mice. Format: in vivo. Particulars: NOD mice four weeks in age, 100 μg/kg intraperitoneal, twice, FIG. 5. The protocol:
Next, a suppression test of diabetes incidence was conducted using NOD mice.

The subject of another experiment is anti-MOG antibody. Briefly: serum anti-MOG antibody measurements (ELISA). Format: in vivo. Particulars: FIG. 10. An excerpt: The ELISA method was used to measure levels of anti-MOG antibody and its isotype in the group treated using synthesized glycolipids. The anti-MOG antibody level rose in the group treated using Compound 25.
Experiment [3] relates to collagen induced arthritis. Briefly: collagen arthritis (CIA) suppression test, C57BL6 mice. Format: in vivo. The settings on record: B6 mice, 500 μg/kg intraperitoneally twice a week from the additional immunization, FIG. 4.
For experiment [4], the system named is experimental autoimmune encephalomyelitis (EAE). The experiment can be described thus: experimental autoimmune encephalomyelitis (EAE) suppression test, B6 mice. Format: in vivo, C57BL6J(B6) mice. Particulars: for Incidence / Onset / Total score / Max. score / Path. score: 400 ng/kg; for Path. score: pathological score 0-4; for EAE suppression effect: oral administration 400 ng/kg.

For experiment [5] the test system is unchanged. Briefly: mechanism of EAE suppression, with or without anti-IL-4 antibody. Format: in vivo, mice.
Experiment [6] shares this test system. The experiment can be described thus: EAE suppression test in NKT knockout mice. Format: in vivo, NKT knockout mice (TCR J alpha 281 knockout mice). The settings on record: for Incidence / Max. score / Onset / Total score: NKT knockout mice, 0 day oral administration, 400 ng/kg.
In experiment [7] the test system is collagen induced arthritis. The experiment can be described thus: collagen arthritis (CIA) suppression test, SJL mice. Format: in vivo. Particulars: FIG. 4.
The subject of experiment [8] is experimental autoimmune encephalomyelitis (EAE), collagen induced arthritis. The settings on record: J. Immunol. 2001, 166, 662-669, cited from earlier work.
Where [9] appears, read: 0 day oral administration, clinical score 0-6.
The mark [10] stands for this setting: anti-IL-4 (+), anti-IL-4 antibody (1 mg/ml) intraperitoneally.

As for `CCCCCCCCCCCCCCCCCCCCCCCC(=O)N[C@@H](CO[C@H]1O[C@H](CO)[C@H](O)[C@H](O)[C@H]1O)[C@H](O)[C@H](O)CCC` [Compound 24, (2S,3S,4R)-1-O-(α-D-galactosyl)-2-(tetracosanoylamino)-1,3,4-heptane triol], the “cytokine predominantly formed by spleen cells (INF-γ / IL-4)” value in the experiment on Murine spleen cells [1] is “IL-4 was predominantly formed”. Besides, the “spleen cell proliferation reaction” value in the experiment on Murine spleen cells [2] is “Significant spleen cell proliferation reaction”.
Consider `CCCCCCCCCCCCCCCCCCCCCCCC(=O)N[C@@H](CO[C@H]1O[C@H](CO)[C@H](O)[C@H](O)[C@H]1O)[C@H](O)[C@H](O)CCCCC` [Compound 25, (2S,3S,4R)-1-O-(α-D-galactosyl)-2-(tetracosanoylamino)-1,3,4-nonane triol], for which the “cytokine predominantly formed by spleen cells (INF-γ / IL-4)” value in the experiment with Murine spleen cells [1] is reported as “IL-4 was predominantly formed”. Also, the “serum cytokine predominantly formed (INF-γ / IL-4)” value with serum INF-γ and IL-4 is “IL-4 was predominantly formed”. Further, the diabetes incidence result in the experiment with diabetes incidence was “significantly suppressed”. The “anti-MOG antibody isotype, IgG1 level” value with anti-MOG antibody is listed as “rose significantly”. Further, the anti-MOG antibody level result in the experiment on anti-MOG antibody is “rose”. For the same compound, the “suppression of collagen induced arthritis (clinical score)” value in experiment [3] is listed as “A suppression effect was observed”; in experiment [7] (500 μg/kg intraperitoneally twice a week from the additional immunization) it was “effectively suppressed”; in [7] (500 μg/kg intraperitoneally twice a week, administration upon appearance of symptoms), “effectively suppressed”. Also, the Incidence is recorded as 10/12 in [4] (0 day oral administration); 6/7 in experiment [4] (8th day oral administration); 10/10 in experiment [5] (setting [10]); 9/10 in [5] (anti-IL-4 (−)); 6/6 in [6]. Moreover, the Onset in [4] (0 day oral administration) is 14.80 ± 1.22; in [4] (8th day oral administration) it was 16.43 ± 1.95; in experiment [5] (setting [10]), 9.43 ± 0.90; in experiment [5] (anti-IL-4 (−)), 11.00 ± 0.78; in experiment [6] it was 12.43 ± 0.53. Besides, the Total score in experiment [4] (0 day oral administration) is reported as 10.71 ± 3.23; in experiment [4] (8th day oral administration), 10.94 ± 3.40; in experiment [5] (setting [10]), 38.79 ± 2.94; in [5] (anti-IL-4 (−)), 26.05 ± 4.16; in experiment [6], 34.36 ± 4.15. For the same compound, the Max. score in [4] (setting [9]) is reported as 1.42 ± 0.33; in experiment [4] (8th day oral administration), 2.25 ± 0.51; in experiment [5] (setting [10]) it was 3.50 ± 0.15; in experiment [5] (anti-IL-4 (−)), 2.75 ± 0.37; in experiment [6], 3.64 ± 0.28. Also, the Path. score in [4] (0 day oral administration) amounted to 1.00 ± 0.13. Moreover, the EAE suppression effect result in experiment [4] (result in words) is on record as “EAE suppression effect was observed”; in experiment [6] (NKT knockout mice (TCR J alpha 281 knockout mice), result in words), “could not be observed”. Further, the “suppression effect in the pathological test” value in [4] (oral administration, result in words) is reported as “suppression effect was observed”. Further, in the experiment with Murine spleen cells [2], the “spleen cell proliferation reaction” value was “Significant spleen cell proliferation reaction”. Moreover, the “EAE suppression effect when anti-IL-4 antibody was administered” value in [5] (anti-IL-4 antibody, result in words) is listed as “disappeared”.
In the case of `CCCCCCCCCCCCCCCCCCCCCCCCCC(=O)N[C@@H](CO[C@H]1O[C@H](CO)[C@H](O)[C@H](O)[C@H]1O)[C@H](O)[C@H](O)CCCCCCCCCCCCCC` [α-GC, (2S,3S,4R)-1-O-(α-D-galactosyl)-2-(N-hexacosanoylamino)-1,3,4-octadecane triol, reference compound], the “cytokine predominantly formed by spleen cells (INF-γ / IL-4)” value in the experiment on Murine spleen cells [1] is given as “INF-γ was predominantly formed”. Also, the “serum cytokine predominantly formed (INF-γ / IL-4)” value in the experiment with serum INF-γ and IL-4 is recorded as “INF-γ was predominantly formed”. In addition, in experiment [8] (EAE and collagen induced arthritis models), the “effect in suppressing or treating autoimmune diseases” value is “clearly not effective”. In experiment [8], the cytokines induced result is on record as “induces both IL-4, a cytokine that suppresses autoimmune diseases, as well as IFN-γ”. Besides, the Incidence in [4] (0 day oral administration) is 12/12; in experiment [4] (8th day oral administration), 7/7; in [5] (setting [10]), 10/10; in experiment [5] (anti-IL-4 (−)), 10/10; in experiment [6], 6/6. Further, the Onset in experiment [4] (0 day oral administration) stood at 14.27 ± 0.98; in experiment [4] (8th day oral administration), 13.86 ± 0.99; in [5] (setting [10]) it was 11.29 ± 1.58; in [5] (anti-IL-4 (−)) it was 9.10 ± 0.84; in experiment [6] it was 13.33 ± 1.41. The Total score in experiment [4] (0 day oral administration) was determined as 20.32 ± 4.07; in experiment [4] (8th day oral administration), 17.50 ± 2.74; in [5] (setting [10]) it was 37.00 ± 5.02; in experiment [5] (anti-IL-4 (−)), 45.00 ± 3.87; in [6], 32.25 ± 6.66. The Max. score in experiment [4] (setting [9]) stood at 2.41 ± 0.37; in experiment [4] (8th day oral administration) it was 3.00 ± 0.29; in experiment [5] (setting [10]) it was 3.79 ± 0.29; in experiment [5] (anti-IL-4 (−)), 4.00 ± 0.25; in [6] it was 3.67 ± 0.42. Besides, the Path. score in experiment [4] (0 day oral administration) stood at 1.79 ± 0.38. In addition, the EAE suppression effect entry in experiment [4] (result in words) is recorded as “no suppression effect was observed”.
Take `CCCCCCCCCCCCCCCCCCCCCCCC(=O)N[C@@H](CO[C@H]1O[C@H](CO)[C@H](O)[C@H](O)[C@H]1O)[C@H](O)[C@H](O)CCCC` [Compound 23, (2S,3S,4R)-1-O-(α-D-galactosyl)-2-(tetracosanoylamino)-1,3,4-octane triol]: in the experiment with Murine spleen cells [1], the “cytokine predominantly formed by spleen cells (INF-γ / IL-4)” value is recorded as “IL-4 was predominantly formed”. The “spleen cell proliferation reaction” value with Murine spleen cells [2] was “Significant spleen cell proliferation reaction”.
